Experimental findings from patent US4833162A, “Substituted benzeneacetonitriles and their use as calcium channel blockers” (American Cyanamid Company, priority 1988, dated 1989) are described below.

Counter-ions that a name gives are not always drawn.

For experiment [1], the system named is thoracic aortae rings (potassium chloride-induced contraction). In words: Calcium antagonist Test 1: inhibition of potassium chloride-induced contraction of rat thoracic aortic rings. Particulars: 50 mM potassium chloride, 37° C., active if >50% inhibition at 3×10^-5 M, read-out: bath concentration at which more than 50% of the potassium chloride-induced contraction was inhibited. The class given is cell-based, Sprague-Dawley rat. On the procedure:
Male Sprague-Dawley rats, weighing 300-470 g, were killed and their thoracic aortae were removed immediately, cleared of blood, fat and connective tissue and cut into rings 1-2 mm wide. […] The bath media was maintained at 37° C. and aerated with 5% carbon dioxide in oxygen.
At the start of the test, the aortic rings were stretched to an initial tension of one gram. The tissues were then allowed to equilibrate for 90 minutes until they reached a steady tension. Changes in tension were recorded using a force displacement transducer coupled to a Grass polygraph.
The potassium chloride-induced contractions were repeated until a constant tension was obtained. These initial contractions served as a control for subsequent contractions induced in the presence of a test compound.
Each compound was dissolved in ethanol to a stock concentration of 10^-2 M. The ability of these compounds to inhibit a potassium chloride-induced contraction was determined by comparing the tension developed in the presence of each compound versus the control.

Experiment [2] concerns renal hypertensive dogs. In words: Test 3: antihypertensive activity in renal hypertensive dogs. The class given is in vivo, dog. On the procedure:
Antihypertensive activity was also measured in renal hypertensive dogs.

The subject of experiment [3] is rat. In words: Test 2: antihypertensive activity in the rat (MABP and heart rate). As to conditions: for antihypertensive activity (comparison in words): Verapamil 50 mg/kg versus 1-methylethyl substituted thio compound 100 mg/kg; for heart rate (HR) / mean arterial blood pressure (MABP): average two rats. The class given is in vivo. The procedure:
Antihypertensive activity was measured in the rat by the mean arterial blood pressure (MABP) in millimeters of mercury and heart rate (HR) in beats per minute (average two rats).

Turning to `COc1ccc(CCN(C)CCSC(C#N)(c2ccc(OC)c(OC)c2)C(C)C)cc1OC` (stereo not drawn) [1-methylethyl substituted thio compound, A-[[2-[[2-(3,4dimethoxyphenyl)ethyl]methylamino]ethyl]thio]-3,4-dimethoxy-A-(1-methylethyl) benzeneacetonitrile monohydrochloride], the IC50 in experiment [1] turned out to be 0.8 µM. Also, the “increase in HR to” value in experiment [2] (dose of 20 mg/kg) was “above 153”. Also, in experiment [2] (dose of 20 mg/kg, over a two hour period), the “drop in blood pressure” value turned out to be 45 millimeter. Moreover, the “antihypertensive activity (comparison in words)” value in experiment [3] was “comparable antihypertensive activity”. In addition, in experiment [3] (dose of 100 mg/kg), the “heart rate (HR)” value is given as 320 beats per minute and the “mean arterial blood pressure (MABP)” value is listed as 97 millimeters of mercury.

Turning to `COc1ccc(CCN(C)CCCC(C#N)(c2ccc(OC)c(OC)c2)C(C)C)cc1OC` (stereo not drawn) [Verapamil, A-[3-[[2-(3,4-dimethoxyphenyl)ethyl]methylamino]propyl]-3,4-dimethoxy-A-(1-methylethyl) benzeneacetonitrile, reference compound], the “increase in HR of” value in experiment [2] (dose of 10 mg/kg) is reported as 75. Further, the “drop in blood pressure” value in experiment [2] (dose of 10 mg/kg, over a four hour period) is 30 millimeters of mercury. In addition, the “antihypertensive activity (comparison in words)” value in experiment [3] is “comparable antihypertensive activity”. Moreover, in experiment [3] (dose of 50 mg/kg), the “heart rate (HR)” value is recorded as 350 beats per minute and the “mean arterial blood pressure (MABP)” value is 93 millimeters of mercury.

As for `COc1ccc(CCN(C)CCSC(C#N)c2ccc(OC)c(OC)c2)cc1OC` (stereo not drawn) [unsubstituted thio compound, A-[[2-[[2(3,4-dimethoxyphenyl)ethyl]methylamino]ethyl]thio]-3,4-dimethoxy-A-benzeneacetonitrile monohydrochloride], in experiment [1], the IC50 turned out to be 3 µM.
